Measured values: patent US7205298B2, “Substituted triazine kinase inhibitors” (Janssen Pharmaceutica N.V., priority 2002, dated 2007)

Key:
[1] = target: T1, Casein Kinase 1 (CK1 delta isoform) (Rattus norvegicus, UniProt Q06486); test: Kinase selectivity assay Casein Kinase 1; format: biochemical
T1 construct: a truncation at amino acid 318 of the C-terminal portion of the rat CK1 delta isoform; purchased New England Biolabs 6030; host or cells: E. coli
T1 sequence (Q06486 1-317): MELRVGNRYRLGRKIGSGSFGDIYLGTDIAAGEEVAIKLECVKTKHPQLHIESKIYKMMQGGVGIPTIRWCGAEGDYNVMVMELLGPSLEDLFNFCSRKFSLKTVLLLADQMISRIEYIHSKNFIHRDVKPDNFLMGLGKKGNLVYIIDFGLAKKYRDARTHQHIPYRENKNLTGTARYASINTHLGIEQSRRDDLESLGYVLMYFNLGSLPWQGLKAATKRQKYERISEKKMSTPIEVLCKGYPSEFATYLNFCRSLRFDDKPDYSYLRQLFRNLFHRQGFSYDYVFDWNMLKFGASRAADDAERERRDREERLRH
Procedure: Assays to test compound inhibition of other kinases were preformed using methods that measure the amount of phosphorylation of a biotinylated peptide substrate. Biotinylated peptide substrates were selected from the literature as appropriate for the enzyme being evaluated. […] Assay conditions vary slightly for each protein kinase, for example, insulin receptor kinase requires 10 mM MnCl2 for activity and Calmodulin-dependent protein kinase requires calmodulin and 2 mM CaCl2. The reaction mixture was dispensed into the wells of a streptavidin coated Flashplate and 1 μL test compound in 100% DMSO was added to a 100 μL reaction volume resulting in a final concentration of 1% DMSO in the reaction. Enzyme was diluted in 50 mM Tris-HCl pH=8.0, 0.1% BSA and added to each well. The reaction was incubated for one hour at 30° C. in the presence of a test compound. After one hour the reaction mix was aspirated from the plate and the plate was washed with PBS containing 100 mM EDTA. The plate was read on a scintillation counter to determine ^33P-γ-ATP incorporated into the immobilized peptide substrate. Test compounds were assayed in duplicate at 8 concentrations (100 μM, 10 μM, 1 μM, 100 nM, 10 nM, 1 nM, 100 pM, 10 pM). A maximum and minimum signal for the assay was determined on each plate. […] Known inhibitor compounds appropriate for the kinase being assayed were also included on each plate. […]

[2] = tested on: MDA-MB-231; test: Inhibition of cell proliferation, 14C-thymidine incorporation, MDA-MB-231; format: cell-based; conditions: Homo sapiens
Procedure: The ability of a test compound to inhibit the proliferation of cell growth was determined by measuring incorporation of ^14C-labelled thymidine into newly synthesized DNA within the cells. This method was used on cell lines derived from carcinomas originating from several tissues such as HeLa cervical adenocarcinoma (American Type Culture Collection (ATCC), Virginia, Cat. #CCL-2), HCT-116 colon carcinoma (CCL-247), MDA-MB-231 (Xenogen Corp.), PC-3 prostate adenocarcinoma (ATCC CRL-1435) and A375 malignant melanoma (ATCC CRL-1619).
Using this method, the effect of a compound on cell growth of cells with many different phenotypes can be determined. Cells were trypsinized and counted and 3000–8000 cells were added to each well of a 96-well CytoStar tissue culture treated scintillating microplate (Amersham #RPNQ0160) in complete medium in a volume of 100 μl. Cells were incubated for 24 hours in complete medium at 37° C. in an atmosphere containing 5% CO2. 1 μL of test compound in 100% DMSO was then added to the wells of the plate. DMSO only was added to control wells. Cells were incubated for 24 more hours in complete medium at 37° C. in an atmosphere containing 5% CO2. […] The degree of methyl ^14C-thymidine incorporation was quantified on a Packard Top Count.

## OCCCNc1cncc(-c2ncnc(Nc3cccc(Cl)c3)n2)c1 [Compound 1, 3-((5-(4-((3-chlorophenyl)amino)-1,3,5-triazin-2-yl)-3-pyridinyl)amino)-1-propanol]
[1]
  IC50: 0.115 µM
[2]
  IC50: 0.33 µM
